Data on 28 molecules can be found in US20040106626A1, “6-Membered unsaturated heterocyclic compounds useful for selective inhibition of the coagulation cascade” (Pharmacia Corporation, priority 2001, published 2004).

The structures appear in SMILES notation. Where only a bound is given, the exact number is not on record here.

Common to all, as to assay type: biochemical
Experiment [1] relates to Normal human pooled plasma. The experiment can be described thus: Prothrombin time (PT) clotting assay. The conditions noted are these: concentration at which prothrombin time is prolonged by 2x normal, reported as less than or greater than 50 uM. The method, then: The prothrombin time (PT) assay is a clotting assay that is used to determine deficiencies of clotting factor activity in the extrinsic pathway. The assay measures time to clotting after the addition of thromboplastin (human tissue factor). Normal human pooled plasma is incubated with 100 uM compound or saline in a coagulation machine. Thromboplastin is added and time to clotting is measured. Compounds with greater than 3×normal PT of 11.0 seconds are further analyzed by concentration response to determine at what concentration the prothrombin time is prolonged by 2×normal.

For experiment [2], the target named is T1, recombinant soluble tissue factor and recombinant human factor VIIa (TF-VIIa) (Homo sapiens, UniProt P08709).
T1 construct: conversion of coagulation factor VII to VIIa by factor Xa; purchased American Diagnostica, Greenwich CT; host or cells: soluble TF made in house in E. coli
Put plainly: TF-VIIa assay (chromogenic substrate hydrolysis). The conditions noted are these: reported only as less than or greater than 0.1 uM. The procedure: In this assay 100 nM recombinant soluble tissue factor and 2 nM recombinant human factor VIIa are added to a 96-well assay plate containing 0.4 mM of the substrate, N-methylsulfonyl-D-phe-gly-arg-p-nitroaniline and either inhibitor or buffer (5 mM CaCl2, 50 mM Tris-HCl, pH 8.0, 100 mM NaCl, 0.1% BSA). […] Percent inhibition of TF-VIIa activity is calculated from OD405 nm value from the experimental and control sample.
(§1) Recombinant human VIIa was purchased from American Diagnostica, Greenwich CT and chromogenic substrate N-methylsulfonyl-D-phe-gly-arg-p-nitroaniline was prepared by American Peptide Company, Inc., Sunnyvale, Calif. Factor Xa was obtained from Enzyme Research Laboratories, South Bend Ind., thrombin from Calbiochem, La Jolla, Calif., and trypsin and L-BAPNA from Sigma, St. Louis Mo.

Experiment [3] concerns the target T2, Human thrombin (Homo sapiens, UniProt P00734).
T2 construct: converts prothrombin (II) to thrombin (IIa); purchased Calbiochem, La Jolla, Calif
The experiment can be described thus: Thrombin assay (chromogenic substrate). The conditions noted are these: reported only as less than or greater than 30 uM; read-out: Thrombin (II) IC50. The procedure:
Percent inhibition of thrombin activity is calculated from OD405 nm value from the experimental and control sample.
as §1

Experiment [4] has as its target T3, Human factor Xa (Homo sapiens, UniProt P00742).
T3 construct: purchased Enzyme Research Laboratories, South Bend Ind
Put plainly: Xa assay (chromogenic substrate S-2765). The conditions noted are these: reported only as less than or greater than 30 uM; read-out: Factor Xa (II) IC50. The method, then: Human factor Xa (0.3 nM) and 0.15 mM -a-Benzyloxycarbonyl-D-arginyl-L-glycyl-L-arginine-p-nitroaniline-dihydrochloride (S-2765) are added to a 96-well assay plate containing either inhibitor or buffer (50 mM Tris-HCl, pH 8.0, 100 mM NaCl, 0.1% BSA). The reaction, in a final volume of 100 ul is measured immediately at 405 nm to determine background absorbance. The plate is incubated at room temperature for 60 min, at which time the rate of hydrolysis of the substrate is measured by monitoring the reaction at 405 nm for the release of p-nitroaniline. Percent inhibition of Xa activity is calculated from OD405 nm value from the experimental and control sample.
Recombinant soluble TF, consisting of amino acids 1-219 of the mature protein sequence was expressed in E. coli and purified using a Mono Q Sepharose FPLC. Recombinant human VIIa was purchased from American Diagnostica, Greenwich CT and chromogenic substrate N-methylsulfonyl-D-phe-gly-arg-p-nitroaniline was prepared by American Peptide Company, Inc., Sunnyvale, Calif. Factor Xa was obtained from Enzyme Research Laboratories, South Bend Ind., thrombin from Calbiochem, La Jolla, Calif., and trypsin and L-BAPNA from Sigma, St. Louis Mo. The chromogenic substrates S-2765 and S-2238 were purchased from Chromogenix, Sweden.

T1 sequence (P08709 213-466 limits assumed): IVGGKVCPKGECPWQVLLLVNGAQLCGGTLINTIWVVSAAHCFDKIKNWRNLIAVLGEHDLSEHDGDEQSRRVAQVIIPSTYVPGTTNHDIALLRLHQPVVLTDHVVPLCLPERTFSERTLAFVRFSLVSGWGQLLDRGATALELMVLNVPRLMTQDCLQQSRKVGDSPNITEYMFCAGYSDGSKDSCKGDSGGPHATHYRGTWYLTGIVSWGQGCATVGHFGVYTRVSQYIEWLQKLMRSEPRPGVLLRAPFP
T1 sequence (P08709 61-212 limits assumed): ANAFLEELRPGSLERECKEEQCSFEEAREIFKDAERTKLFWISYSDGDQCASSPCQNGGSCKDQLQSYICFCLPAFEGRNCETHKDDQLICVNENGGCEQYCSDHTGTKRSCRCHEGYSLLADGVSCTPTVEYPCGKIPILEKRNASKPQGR
T1 sequence (P13726 33-251 partner limits assumed): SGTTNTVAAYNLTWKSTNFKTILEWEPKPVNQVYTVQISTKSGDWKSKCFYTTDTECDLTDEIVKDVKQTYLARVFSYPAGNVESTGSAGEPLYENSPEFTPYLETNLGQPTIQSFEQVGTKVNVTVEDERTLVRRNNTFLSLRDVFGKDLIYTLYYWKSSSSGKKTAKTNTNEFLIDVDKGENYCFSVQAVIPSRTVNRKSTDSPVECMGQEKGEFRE
T3 sequence (P00742 235-488 limits assumed): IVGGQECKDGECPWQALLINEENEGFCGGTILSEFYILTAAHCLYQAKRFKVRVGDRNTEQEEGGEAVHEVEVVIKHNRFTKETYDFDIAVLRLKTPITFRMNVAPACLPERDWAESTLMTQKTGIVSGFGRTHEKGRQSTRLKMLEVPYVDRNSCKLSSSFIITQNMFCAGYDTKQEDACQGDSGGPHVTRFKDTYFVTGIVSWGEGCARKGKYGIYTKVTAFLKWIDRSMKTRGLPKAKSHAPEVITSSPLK
T3 sequence (P00742 41-179 limits assumed): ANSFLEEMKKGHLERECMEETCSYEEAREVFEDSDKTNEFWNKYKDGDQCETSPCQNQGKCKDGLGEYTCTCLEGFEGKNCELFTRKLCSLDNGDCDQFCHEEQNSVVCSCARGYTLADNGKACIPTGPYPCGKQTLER

Turning to `CC(C)Nc1ncc(-c2cc(N)cc(C(=O)O)c2)n(CC(=O)NCc2ccc(C(=N)N)cc2)c1=O` [Example 16, 3-amino-5-[1-[2-({4-[amino(imino)methyl]benzyl}amino)-2-oxoethyl]-5-(isopropylamino)-6-oxo-1,6-dihydropyrazin-2-yl]benzoic Acid Trifluoracetate], the “PT (Prothrombin time) 2xPT” value in experiment [1] is less than 50.0 µM.

`CC(C)Nc1ncc(-c2cc(N)cc(NCC(C)(C)C)c2)n(CC(=O)NCc2ccc(C(=N)N)cc2)c1=O.O=C(O)C(F)(F)F.O=C(O)C(F)(F)F` [Example 152]: the “PT (Prothrombin time) 2xPT” value in experiment [1] was less than 50.0 µM.

The term IC50 denotes the concentration at which inhibition is half-maximal. As to `COC(=O)c1cc(N)cc(-c2ncc(NC(C)C)c(=O)n2CC(=O)NCc2ccc(C(=N)N)cc2)c1` [Example 1], the IC50 in experiment [2] was less than 0.1 µM; in experiment [3], more than 30 µM; in experiment [4], more than 30 µM.

In the case of `COCCOCCOCCOCCOCCOCCOC(=O)c1cc(N)cc(-c2cnc(NC(C)C)c(=O)n2CC(=O)NCc2ccc(C(=N)N)cc2)c1` [Example 201], the 50% inhibitory concentration (IC50) in experiment [2] is less than 0.1 µM; in experiment [3], more than 30 µM; in experiment [4], more than 30 µM.

With `CC(C)Nc1ncc(-c2cc(N)cc(C(=O)NCc3ccccc3)c2)n(CC(=O)NCc2ccc(C(=N)N)cc2)c1=O` [Example 25], the IC50 was less than 0.1 µM in experiment [2], less than 30 µM in experiment [3] and more than 30 µM in experiment [4].

As to `CC(C)Nc1ncc(-c2cc(N)cc(C(=O)NC3CCCCCC3)c2)n(CC(=O)NCc2ccc(C(=N)N)cc2)c1=O` [Example 9], the half-maximal inhibitory concentration (IC50) in experiment [2] was less than 0.1 µM; in experiment [3], less than 30 µM; in experiment [4], more than 30 µM.

Turning to `CC(C)Nc1cnc(-c2cc(N)cc(C(=O)O)c2)n(CC(=O)NCc2ccc(C(=N)N)cc2)c1=O` [Example 2], the values for the IC50 in experiment [2], in experiment [3] and in experiment [4] were less than 0.1 µM, more than 30 µM and more than 30 µM, respectively.

Consider `CC(C)Nc1ncc(-c2cc(N)cc(NC(=O)C(C)(C)C)c2)n(CC(=O)NCc2ccc(C(=N)N)cc2)c1=O` [Example 132], for which the IC50 is less than 0.1 µM in experiment [2], less than 30 µM in experiment [3] and more than 30 µM in experiment [4].

For `CC[C@H](C)NC(=O)c1cc(N)cc(-c2cnc(NC(C)C)c(=O)n2CC(=O)NCc2c(O)cc(C(=N)N)cc2OCc2ccccc2)c1` [Example 242], the IC50 was less than 0.1 µM in experiment [2], more than 30 µM in experiment [3] and more than 30 µM in experiment [4].

With `COC(=O)c1cc(N)cc(-c2cnc(NC(C)C)c(=O)n2CC(=O)NCc2c(F)c(O)c(C(=N)N)c(F)c2F)c1` [Example 20], the results for the IC50 in experiment [2], in experiment [3] and in experiment [4] were more than 0.1 µM, more than 30 µM and more than 30 µM, respectively.

In the case of `CC(C)Nc1ncc(-c2cc(N)cc(C(F)(F)F)c2)n(CC(=O)NCc2ccc(C(=N)N)c(O)c2F)c1=O` [Example 97], the IC50 in experiment [2] is more than 0.1 µM; in experiment [3] it was more than 30 µM; in experiment [4], more than 30 µM.

As to `CC[C@H](C)NC(=O)c1cc(N)cc(-c2cnc(NC3CC3)c(=O)n2CC(=O)NCc2ccc(C(=N)N)cc2)c1` [Example 183], the figures for the IC50 in experiment [2], in experiment [3] and in experiment [4] were less than 0.1 µM, less than 30 µM and more than 30 µM, respectively.

For the molecule `CC(C)Nc1ncc(-c2cc(N)cc(C(=O)NC3CCCC3)c2)n(CC(=O)NCc2ccc(C(=N)N)cc2)c1=O` [Example 11], the values for the IC50 in experiment [2], in experiment [3] and in experiment [4] were less than 0.1 µM, less than 30 µM and less than 30 µM, respectively.

As for `CC(C)Nc1ncc(-c2cc(N)cc(C(=O)NCCc3ccc(F)cc3)c2)n(CC(=O)NCc2ccc(C(=N)N)cc2)c1=O` [Example 33], the half-maximal inhibitory concentration (IC50) is less than 0.1 µM in experiment [2], more than 30 µM in experiment [3] and more than 30 µM in experiment [4].

With `CC(C)CNC(=O)c1cc(N)cc(-c2cnc(NC(C)C)c(=O)n2CC(=O)NCc2ccc(C(=N)N)cc2)c1` [Example 27], the IC50 in experiment [2] is less than 0.1 µM; in experiment [3], more than 30 µM; in experiment [4], more than 30 µM.

Consider `COc1c(N)cc(CC(=O)O)cc1-c1cnc(NC(C)C)c(=O)n1CC(=O)NCc1ccc(C(=N)N)cc1` [Example 23, {3-Amino-5-[1-[2-({4-[amino(imino)methyl]benzyl}amino)-2-oxoethyl]-5-(isopropylamino)-6-oxo-1,6-dihydropyrazin-2-yl]-4-methoxyphenyl}acetic Acid], for which the results for the IC50 in experiment [2], in experiment [3] and in experiment [4] were more than 0.1 µM, more than 30 µM and more than 30 µM, respectively.

`CC(C)Nc1nc(Cl)c(-c2cc(N)ccc2SCc2ccccc2)n(CC(=O)NCc2ccc(C(=N)N)cc2)c1=O` [Example 31]: the IC50 in experiment [2] was more than 0.1 µM; in experiment [3], more than 30 µM; in experiment [4] it was more than 30 µM.

With `CNc1ncc(-c2cc(N)cc(C(=O)OC)c2)n(CC(=O)NCc2ccc(C(=N)N)cc2)c1=O` [Example 36], the half-maximal inhibitory concentration (IC50) in experiment [2] was more than 0.1 µM; in experiment [3], more than 30 µM; in experiment [4], more than 30 µM.

On to `CC(C)Nc1ncc(-c2cc(N)cc(C(F)(F)F)c2)n(CC(=O)NCc2c(F)c(O)c(C(=N)N)c(F)c2F)c1=O` [Example 126], for which the 50% inhibitory concentration (IC50) in experiment [2] was less than 0.1 µM; in experiment [3] it was less than 30 µM; in experiment [4], more than 30 µM.

Turning to `COC(=O)Cc1cc(N)c(OC)c(-c2cnc(NC(C)C)c(=O)n2CC(=O)NCc2ccc(C(=N)N)cc2)c1` [Example 22, Methyl {3-amino-5-[1-[2-({4-[amino(imino)methyl]benzyl}amino)-2-oxoethyl]-5-(isopropylamino)-6-oxo-1,6-dihydropyrazin-2-yl]-4-methoxyphenyl}acetate], the IC50 in experiment [2] was more than 0.1 µM; in experiment [3] it was more than 30 µM; in experiment [4], more than 30 µM.

As for `CC(C)Nc1ncc(-c2cc(N)cc(F)c2)n(CC(=O)NCc2ccc(C(=N)N)cc2)c1=O` [Example 52], the IC50 in experiment [2] is less than 0.1 µM; in experiment [3] it was less than 30 µM; in experiment [4], more than 30 µM.

Consider `CC(C)Nc1ncc(-c2cc(N)cc(O)c2)n(CC(=O)NCc2cc(O)c(C(=N)N)c(F)c2)c1=O` [Example 180], for which the IC50 in experiment [2] was more than 0.1 µM; in experiment [3] it was more than 30 µM; in experiment [4], more than 30 µM.

As to `COCCOCCOCCOC(=O)c1cc(N)cc(-c2cnc(NC(C)C)c(=O)n2CC(=O)NCc2ccc(C(=N)N)cc2)c1` [Example 200], the IC50 was less than 0.1 µM in experiment [2], more than 30 µM in experiment [3] and more than 30 µM in experiment [4].

Turning to `CCCCCC(C)C(=O)Nc1cc(N)cc(-c2cnc(NC(C)C)c(=O)n2CC(=O)NCc2ccc(C(=N)N)cc2)c1` (centres unmarked) [Example 138], the IC50 was less than 0.1 µM in experiment [2], less than 30 µM in experiment [3] and more than 30 µM in experiment [4].

Take `CC(C)Nc1ncc(-c2cc(N)cc(C(=O)NCc3cccc(F)c3)c2)n(CC(=O)NCc2ccc(C(=N)N)cc2)c1=O` [Example 8]: the IC50 in experiment [2] was less than 0.1 µM; in experiment [3], more than 30 µM; in experiment [4], more than 30 µM.

On to `CC[C@@H](C)NC(=O)c1cc(N)cc(-c2cnc(NC(C)C)c(=O)n2CC(=O)NCc2c(OC)cc(C(=N)N)cc2OC)c1` [Example 197], for which the values for the IC50 in experiment [2], in experiment [3] and in experiment [4] were more than 0.1 µM, more than 30 µM and more than 30 µM, respectively.

In the case of `CC[C@@H](C)NC(=O)c1cc(N)cc(-c2cnc(NC(C)(C)C)c(=O)n2CC(=O)NCc2ccc(C(=N)N)cc2)c1` [Example 256, 3-amino-5-[1-[2-({4-[amino(imino)methyl]benzyl}amino)-2-oxoethyl]-5-(tert-butylamino)-6-oxo-1,6-dihydropyrazin-2-yl]-N-[(lR)-1-methylpropyl]benzamide bis(trifluoroacetate)], the results for the IC50 in experiment [2], in experiment [3] and in experiment [4] were less than 0.1 µM, less than 30 µM and more than 30 µM, respectively.

On to `CNc1ncc(-c2cc(N)cc(C(=O)O)c2)n(CC(=O)NCc2ccc(C(=N)N)cc2)c1=O` [Example 37], for which the values for the IC50 in experiment [2], in experiment [3] and in experiment [4] were more than 0.1 µM, more than 30 µM and more than 30 µM, respectively.
